Experimental data from patent US12410171B2, “Tropomyosin receptor kinase (TRK) degradation compounds and methods of use” (Cullgen (Shanghai), Inc., priority 2020, dated 2025).
Like-named read-outs stand apart in the source and are kept apart here.

Key:
Type in all cases: cell-based
TPM3-TRKA fusion protein = target: T1, TPM3-TRKA fusion protein (Homo sapiens, UniProt P04629); experiment: TPM3-TRKA fusion protein levels in KM12 cells (Western blot); settings: for percent degradation of TPM3-TRKA protein at 0.01 µM: read-out: Degradation (at 10 nM); for relative effectiveness at degrading TRKA: 0.4-30 nM, 8-16 hours, comparison of enantiomers (FIG. 28A-28B)
T1 construct: The resulted chimeric proteins always retain the kinase domain of TRK proteins; TPM3 (fusion partner, N-terminal part of tropomyosin alpha-3, P06753); endogenous in cells; host or cells: KM12 colon cancer cells; the other entry of the earlier key: TPM3 (P06753, Tropomyosin alpha-3 chain)
Outline: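 TPM3-TRKA levels were assessed by Western blot with chemiluminescent detection and band densitometry, after SDS-PAGE of BCA-normalized RIPA lysates. Before lysis, KM12 cells received DMSO, compounds or matched control compounds at concentrations including 0.1, 1, 10 and 100 nM and 0.4–30 nM. Exposures lasted 4 h, 8–16 h or 16 h.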

wildtype TRKA protein = target: T2, wildtype TRKA protein (Homo sapiens, UniProt P04629); experiment: Wildtype TRKA protein levels in HEL erythroleukemia cells (Western blot); settings: dose range (FIG. 8)
T2 construct: wildtype TRKA protein expressed by HEL cells; endogenous in cells; host or cells: HEL erythroleukemia cells
Description: KM12 or HEL cells were treated with a dose range of compound TR-123 or TR-123-negative. The latter lost binding to cereblon (CRBN) due to a chemical modification.
KM12 or HEL cells were treated with a single dose of compound TR-123 or combination with MG-132, Bortezomib, MLN4924 or Pomalidomide.
HEL cells were treated with heterobifunctional compounds at 10 nM or 100 nM for 16 hours.
KM12, H358, HEL, SU-DHL-1 and other cells were cultured at 37° C. with 5% CO2 in RPMI 1640 Medium supplemented with 10% fetal bovine serum. Cells were authenticated using the short tandem repeat (STR) assays. Mycoplasma test results were negative. Stable cell lines were established by lentivirus transduction, selected and maintained in medium containing 1 μg/mL puromycin (Beyotime Biotechnology).
Cultured cells were washed with cold PBS once and lysed in cold RIPA buffer supplemented with protease inhibitors and phosphatase inhibitors (Beyotime Biotechnology). The solutions were then incubated at 4° C. for 30 minutes with gentle agitation to fully lyse cells. For tumor tissues, tumors were cut into small pieces, milled with cold RIPA buffer using a mechanical homogenizer and lysed for 1 hour at 4° C. Cell lysates were centrifuged at 13,000 rpm for 10 minutes at 4° C. and pellets were discarded. Total protein concentrations in the lysates were determined by BCA assays (Beyotime Biotechnology). Cell lysates were mixed with Laemmli loading buffer to 1× and heated at 99° C. for 5 min. Proteins were resolved on SDS-PAGE and visualized by chemiluminescence. Images were taken by a ChemiDoc MP Imaging system (Bio-Rad). Protein bands were quantitated using the software provided by Bio-Rad.

KM12 cells = experiment: KM12 cell viability (CellTiter-Glo); settings: Homo sapiens, 72 h; KM12 cell viability, CellTiter-Glo, three days treatment; read-out: IC50
Outline: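 Three-day exposure of KM12 cells (5000/well, RPMI 1640 with 10% FBS, 37 °C, 5% CO2) to compound dilution series, 3-fold over 8 or 11 points (top 1000 nM in the 8-point format) or 2-fold over 12. CellTiter-Glo readout, with IC50 fitted by nonlinear least-squares regression.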

[1] = 16 h, TPM3-TRKA degradation in KM12 cells at 10 nM compound, category of percentage degradation

T1 sequence (P04629 with tags, fused parts or gaps): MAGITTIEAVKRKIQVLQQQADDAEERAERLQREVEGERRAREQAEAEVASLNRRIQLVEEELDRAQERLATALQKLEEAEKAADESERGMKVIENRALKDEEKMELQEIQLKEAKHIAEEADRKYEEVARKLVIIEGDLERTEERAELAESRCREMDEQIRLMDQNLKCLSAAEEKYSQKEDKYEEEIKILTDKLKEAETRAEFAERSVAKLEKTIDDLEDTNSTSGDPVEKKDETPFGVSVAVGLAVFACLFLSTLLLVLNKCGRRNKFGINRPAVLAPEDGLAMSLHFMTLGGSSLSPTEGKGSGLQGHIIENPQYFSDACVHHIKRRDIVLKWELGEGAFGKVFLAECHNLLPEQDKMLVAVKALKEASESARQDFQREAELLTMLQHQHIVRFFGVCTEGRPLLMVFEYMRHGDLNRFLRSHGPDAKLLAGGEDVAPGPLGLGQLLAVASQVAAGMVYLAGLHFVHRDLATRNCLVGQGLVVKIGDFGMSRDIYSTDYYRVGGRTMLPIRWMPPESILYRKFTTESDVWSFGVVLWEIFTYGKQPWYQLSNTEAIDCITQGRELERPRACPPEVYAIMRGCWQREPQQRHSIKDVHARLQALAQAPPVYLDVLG
T2 sequence (P04629 33-796): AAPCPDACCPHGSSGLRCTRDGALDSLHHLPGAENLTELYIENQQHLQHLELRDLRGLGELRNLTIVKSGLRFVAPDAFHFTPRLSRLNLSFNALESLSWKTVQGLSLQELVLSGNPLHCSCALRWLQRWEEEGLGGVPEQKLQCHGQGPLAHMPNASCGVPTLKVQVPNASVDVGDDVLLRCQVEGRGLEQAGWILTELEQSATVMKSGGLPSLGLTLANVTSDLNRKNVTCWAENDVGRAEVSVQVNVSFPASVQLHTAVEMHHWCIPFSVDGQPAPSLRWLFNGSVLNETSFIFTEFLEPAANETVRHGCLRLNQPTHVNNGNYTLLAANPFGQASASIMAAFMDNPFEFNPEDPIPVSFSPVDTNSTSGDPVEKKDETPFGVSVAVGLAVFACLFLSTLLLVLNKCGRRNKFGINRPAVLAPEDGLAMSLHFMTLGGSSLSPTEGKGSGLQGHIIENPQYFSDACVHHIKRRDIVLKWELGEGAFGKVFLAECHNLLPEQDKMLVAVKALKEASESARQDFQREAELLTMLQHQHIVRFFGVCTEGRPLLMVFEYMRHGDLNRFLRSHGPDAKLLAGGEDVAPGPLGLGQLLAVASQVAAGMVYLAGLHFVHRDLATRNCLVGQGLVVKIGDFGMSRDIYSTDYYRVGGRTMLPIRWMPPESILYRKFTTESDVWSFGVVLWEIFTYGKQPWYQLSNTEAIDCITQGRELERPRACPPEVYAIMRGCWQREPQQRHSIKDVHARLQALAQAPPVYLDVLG

## CN1C(=O)CCC(N2C(=O)c3ccc(NCC(=O)N4CCN(c5cccc(-c6cnc7ccc(N8CCC[C@@H]8c8cccc(F)c8)nn67)n5)CC4)cc3C2=O)C1=O (stereo partly drawn) [TR-123-negative, 5-((2-(4-(6-(6-((R)-2-(3-fluorophenyl)pyrrolidin-1-yl)imidazo[1,2-b]pyridazin-3-yl)pyridin-2-yl)piperazin-1-yl)-2-oxoethyl)amino)-2-(1-methyl-2,6-dioxopiperidin-3-yl)isoindoline-1,3-dione]
TPM3-TRKA fusion protein; KM12 cells, dose range (FIG. 8)
  TRKA protein levels: had none or less effects on TRKA protein levels
Wildtype TRKA protein
  TRKA protein levels: had none or less effects on TRKA protein levels

## O=C1CCC(N2Cc3cc(N4CC(N5CCN(c6ccc(C(=O)Nc7n[nH]c8ccc(Cc9cc(F)cc(F)c9)cc78)c(NC7CCOCC7)c6)CC5)C4)ccc3C2=O)C(=O)N1 (stereo not drawn) [TR-332, N-(5-(3,5-difluorobenzyl)-1H-indazol-3-yl)-4-(4-(1-(2-(2,6-dioxopiperidin-3-yl)-1-oxoisoindolin-5-yl)azetidin-3-yl)piperazin-1-yl)-2-((tetrahydro-2H-pyran-4-yl)amino)benzamide]
KM12 cells
  IC50: 1.7 nM
TPM3-TRKA fusion protein; [1]
  percent degradation of TPM3-TRKA protein at 0.01 µM: > 80%

## Cc1nc2cccc(N3CC(CN4CCN(c5ccc(C(=O)Nc6n[nH]c7ccc(Cc8cc(F)cc(F)c8)cc67)c(NC6CCOCC6)c5)CC4)C3)c2c(=O)n1C1CCC(=O)NC1=O (stereo not drawn) [TR-333, N-(5-(3,5˜Difluorobenzyl)-1H-indazol-3-yl)-4-(4-((1-(3-(2,6-dioxopiperidin-3-yl)-2-methyl-4-oxo-3,4-dihydroquinazolin-5-yl)azetidin-3-yl)methyl)piperazin-1-yl)-2-((tetrahydro-2H-pyran-4-yl)amino)benzamide]
KM12 cells
  IC50: 10.5 nM
TPM3-TRKA fusion protein; [1]
  percent degradation of TPM3-TRKA protein at 0.01 µM: 50 to 80%

## Cc1nc2cccc(N3CC(CCN4CCN(c5ccc(C(=O)Nc6n[nH]c7ccc(Cc8cc(F)cc(F)c8)cc67)c(NC6CCOCC6)c5)CC4)C3)c2c(=O)n1C1CCC(=O)NC1=O (stereo not drawn) [TR-334, N-(5-(3,5-Difluorobenzyl)-1H-indazol-3-yl)-4-(4-(2-(1-(3-(2,6-dioxopiperidin-3-yl)-2-methyl-4-oxo-3,4-dihydroquinazolin-5-yl)azetidin-3-yl)ethyl)piperazin-1-yl)-2-((tetrahydro-2/-pyran-4-yl)amino)benzamide]
KM12 cells
  IC50: 24.6 nM
TPM3-TRKA fusion protein; [1]
  percent degradation of TPM3-TRKA protein at 0.01 µM: 50 to 80%

## O=C1CCC(N2Cc3ccc(N4CC(N5CCN(c6cccc(-c7cnc8ccc(N9CCC[C@@H]9c9cccc(F)c9)nn78)n6)CC5)C4)cc3C2=O)C(=O)N1 (stereo partly drawn) [TR-335, 3-(6-(3-(4-(6-(6-((R)-2-(3-fluorophenyl)pyrrolidin-1-yl)imidazo[1,2-b]pyridazin-3-yl)pyridin-2-yl)piperazin-1-yl)azetidin-1-yl)-1-oxoisoindolin-2-yl)piperidine-2,6-dione]
KM12 cells
  IC50: 8.3 nM
TPM3-TRKA fusion protein; [1]
  percent degradation of TPM3-TRKA protein at 0.01 µM: 50 to 80%

## O=C1CCC(N2Cc3ccc(N4CC(N5CCN(c6ccc(C(=O)Nc7n[nH]c8ccc(Cc9cc(F)cc(F)c9)cc78)c(NC7CCOCC7)c6)CC5)C4)cc3C2=O)C(=O)N1 (stereo not drawn) [TR-336, N—(S-(3,5-difluorobenzyl)-1H-indazol-3-yl)-4-(4-(1-(2-(2,6-dioxopiperidin-3-yl)-3-oxoisoindolin-5-yl)azetidin-3-yl)piperazin-1-yl)-2-((tetrahydro-2H-pyran-4-yl)amino)benzamide]
KM12 cells
  IC50: 3.2 nM
TPM3-TRKA fusion protein; [1]
  percent degradation of TPM3-TRKA protein at 0.01 µM: > 80%

## O=C1CCC(N2C(=O)c3ccc(N4CC(NC5CCN(c6ccc(C(=O)Nc7n[nH]c8ccc(Cc9cc(F)cc(F)c9)cc78)c(NC7CCOCC7)c6)CC5)C4)cc3C2=O)C(=O)N1 (stereo not drawn) [TR-337, N-(5-(3,5-difluorobenzyl)-1H-indazol-3-yl)-4-(4-((1-(2-(2,6-dioxopiperidin-3-yl)-1,3-dioxoisoindolin-5-yl)azetidin-3-yl)amino)piperidin-1-yl)-2-((tetrahydro-2H-pyran-4-yl)amino)benzamide]
KM12 cells
  IC50: 5.5 nM
TPM3-TRKA fusion protein; [1]
  percent degradation of TPM3-TRKA protein at 0.01 µM: > 80%

## O=C1CCC(N2Cc3cc(C4CN(C5CCN(c6ccc(C(=O)Nc7n[nH]c8ccc(Cc9cc(F)cc(F)c9)cc78)c(NC7CCOCC7)c6)CC5)C4)ccc3C2=O)C(=O)N1 (stereo not drawn) [TR-338, N-(5-(3,5-difluorobenzyl)-1H-indazol-3-yl)-4-(4-(3-(2-(2,6-dioxopiperidin-3-yl)-1-oxoisoindolin-5-yl)azetidin-1-yl)piperidin-1-yl)-2-((tetrahydro-2H-pyran-4-yl)amino)benzamide]
KM12 cells
  IC50: 1.3 nM
TPM3-TRKA fusion protein; KM12, 16 h
  percent degradation of TPM3-TRKA protein at 0.01 µM: > 80%

## O=C1CCC(N2C(=O)c3ccc(C4CN(C5CCN(c6ccc(C(=O)Nc7n[nH]c8ccc(Cc9cc(F)cc(F)c9)cc78)c(NC7CCOCC7)c6)CC5)C4)cc3C2=O)C(=O)N1 (stereo not drawn) [TR-339, N-(5-(3,5-difluorobenzyl)-1H-indazol-3-yl)-4-(4-(3-(2-(2,6-dioxopiperidin-3-yl)-1,3-dioxoisoindolin-5-yl)azetidin-1-yl)piperidin-1-yl)-2-((tetrahydro-2H-pyran-4-yl)amino)benzamide]
KM12 cells
  IC50: 8.1 nM
TPM3-TRKA fusion protein; [1]
  percent degradation of TPM3-TRKA protein at 0.01 µM: > 80%

## O=C1CCC(N2C(=O)c3ccc(N4CC5(C4)CN(C4CCN(c6ccc(C(=O)Nc7n[nH]c8ccc(Cc9cc(F)cc(F)c9)cc78)c(NC7CCOCC7)c6)CC4)C5)cc3C2=O)C(=O)N1 (stereo not drawn) [TR-340, N-(5-(3,5-difluorobenzyl)-1H-indazol-3-yl)-4-(4-(6-(2-(2,6-dioxopiperidin-3-yl)-1,3-dioxoisoindolin-5-yl)-2,6-diazaspiro[3.3]heptan-2-yl)piperidin-1-yl)-2-((tetrahydro-2H-pyran-4-yl)amino)benzamide]
KM12 cells
  IC50: 7.5 nM
TPM3-TRKA fusion protein; [1]
  percent degradation of TPM3-TRKA protein at 0.01 µM: > 80%

## O=C1CC[C@H](N2C(=O)c3ccc(N4CC(CN5CCN(c6ccc(C(=O)Nc7n[nH]c8ccc(Cc9cc(F)cc(F)c9)cc78)c(NC7CCOCC7)c6)CC5)C4)cc3C2=O)C(=O)N1 [TR-341, (S)—N-(5-(3,5-difluorobenzyl)-1H-indazol-3-yl)-4-(4-((1-(2-(2,6-dioxopiperidin-3-yl)-1,3-dioxoisoindolin-5-yl)azetidin-3-yl)methyl)piperazin-1-yl)-2-((tetrahydro-2H-pyran-4-yl)amino)benzamide]
KM12 cells
  IC50: 3 nM
TPM3-TRKA fusion protein; [1]
  percent degradation of TPM3-TRKA protein at 0.01 µM: > 80%

## O=C1CC[C@@H](N2C(=O)c3ccc(N4CC(CN5CCN(c6ccc(C(=O)Nc7n[nH]c8ccc(Cc9cc(F)cc(F)c9)cc78)c(NC7CCOCC7)c6)CC5)C4)cc3C2=O)C(=O)N1 [TR-342, (R)—N-(5-(3,5-difluorobenzyl)-1H-indazol-3-yl)-4-(4-((1-(2-(2,6-dioxopiperidin-3-yl)-1,3-dioxoisoindolin-5-yl)azetidin-3-yl)methyl)piperazin-1-yl)-2-((tetrahydro-2H-pyran-4-yl)amino)benzamide]
KM12 cells
  IC50: 3 nM
TPM3-TRKA fusion protein; [1]
  percent degradation of TPM3-TRKA protein at 0.01 µM: > 80%
TPM3-TRKA fusion protein; KM12 cells
  relative effectiveness at degrading TRKA: more effective at degrading TRKA at lower concentrations than TR-342

## O=C1CC[C@H](N2C(=O)c3ccc(N4CC(N5CCN(c6ccc(C(=O)Nc7n[nH]c8ccc(Cc9cc(F)cc(F)c9)cc78)c(NC7CCOCC7)c6)CC5)C4)cc3C2=O)C(=O)N1 [TR-343, (S)—N-(5-(3,5-difluorobenzyl)-1H-indazol-3-yl)-4-(4-(1˜ (2-(2,6-dioxopiperidin-3-yl)-1,3-dioxoisoindolin-5-yl)azetidin-3-yl)piperazin-1-yl)-2-((tetrahydro-2H-pyran-4-yl)amino)benzamide]
KM12 cells
  IC50: 9 nM
TPM3-TRKA fusion protein; [1]
  percent degradation of TPM3-TRKA protein at 0.01 µM: > 80%
TPM3-TRKA fusion protein; KM12 cells
  relative effectiveness at degrading TRKA: more effective at degrading TRKA at lower concentrations than TR-344

## O=C1CC[C@@H](N2C(=O)c3ccc(N4CC(N5CCN(c6ccc(C(=O)Nc7n[nH]c8ccc(Cc9cc(F)cc(F)c9)cc78)c(NC7CCOCC7)c6)CC5)C4)cc3C2=O)C(=O)N1 [TR-344, (R)—N—(S-(3,5-difluorobenzyl)-1H-indazol-3-yl)-4-(4-(1-(2-(2,6-dioxopiperidin-3-yl)-1,3-dioxoisoindolin-5-yl)azetidin-3-yl)piperazin-1-yl)-2-((tetrahydro-2H-pyran-4-yl)amino)benzamide]
KM12 cells
  IC50: 9 nM
TPM3-TRKA fusion protein; [1]
  percent degradation of TPM3-TRKA protein at 0.01 µM: > 80%
